Test results published in article PMC11149620 (Journal of medicinal chemistry, 2024).
Like-named read-outs stand apart in the source and are kept apart here. Where no end group is shown, it is not given here.

What was measured:
[1] = biological target: T1, human ATAD2B BRD-containing protein (residues 953–1085) (Homo sapiens, UniProt Q9ULI0); assay: ITC of histone peptides with the ATAD2B BRD
T1 sequence (Q9ULI0 953-1085): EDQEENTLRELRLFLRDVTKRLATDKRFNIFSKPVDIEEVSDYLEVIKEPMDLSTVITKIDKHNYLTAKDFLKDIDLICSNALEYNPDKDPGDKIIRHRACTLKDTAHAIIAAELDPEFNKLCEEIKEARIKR

[2] = biological target: T1, human ATAD2B BRD-containing protein (residues 953–1085); conditions: read-out: KD for ATAD2B; ITC; cited from earlier work
[3] = biological target: T2, Human ATAD2 BRD-containing protein (residues 966–1112) (Homo sapiens, UniProt Q6PL18); conditions: read-out: KD for ATAD2; ITC; cited from earlier work
T2 sequence (Q6PL18 966-1112): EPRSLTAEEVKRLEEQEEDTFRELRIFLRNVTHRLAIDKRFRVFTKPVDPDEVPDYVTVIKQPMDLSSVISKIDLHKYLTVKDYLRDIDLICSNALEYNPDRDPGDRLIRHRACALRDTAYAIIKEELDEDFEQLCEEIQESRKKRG

ATAD2 BRD = conditions: induces dimerization of the ATAD2 BRD to block binding to acetylated histones; cited from earlier work

Which Kd [1] does the source give for “SGRGKTGGK(Ac)ARAKAKSR-NH2 [H2A.XK9ac (1–17)]” here?
The Kd was 90 ± 12.8 µM.

Which Kd [2] does the source give for SGRGKacQGGKARA [H2AK5ac (1–12)] here?
The Kd was 42.5 ± 2.9 µM.

And the Kd [3]?
The Kd was 38.9 ± 5.9 µM.

For `COc1cc(Cl)c(C(=O)N[C@@H](CN[C@H]2CC[C@@H](N)CC2)Cc2ccc(C#N)cc2)cc1-c1ccc(CN[C@H](C)c2ccc(C)cc2)o1` [BAY-850], which IC50 (ATAD2 BRD) is on record?
The IC50 was 0.02 µM.

For “H4K5ac (1–15): wild-type histone H4K5ac ligand residues 1–15, values from earlier papers”, which Kd [2] is on record?
Its Kd is 5.2 ± 1 µM.
